Values of other authors in patent US6399047B1, “Benzoxazole derivatives for use in cosmetic compositions and for stabilizing synthetic polymers” (3V Sigma S.p.A., priority 2000, dated 2002).

Legend:
[1] = background statement
[2] = background statement; remark: listed apart in the source

For `COc1ccc(C(=O)c2ccccc2)c(O)c1` [2-Hydroxy-4-methoxybenzophenone], the “solubility in solvents usually used in cosmetics” value [1] is given as “very low” and the “maximum absorption in the UV-A zone” value [2] is given as “about 325 nm”.
